# Measurements taken from ChEMBL document CHEMBL1212708, “Sialic acid dependence in rotavirus host cell invasion” (Nat Chem Biol, 2009).
# Active and inactive are the calls of the source. The calls are words filed in the database; no cut-off is given here.
# How the values were obtained:
# Rotavirus [1] = assay: Binding affinity to sialidase-insensitive Rotavirus Wa VP8 protein at 0.46 mM by STD NMR spectral analysis
# Rotavirus [2] = assay: Binding affinity to […] Rotavirus CRW-8 VP8 at 1.2 mM by STD NMR spectrum
# Rotavirus [3] = assay: Binding affinity to […] Rotavirus CRW-8 VP8 at 3.5 mM by STD NMR spectrum
# Rotavirus [4] = assay: Binding affinity to sialidase-insensitive Rotavirus Wa VP8 at 3.5 mM by STD NMR spectrum
# MA104 [5] = assay: Inhibition of Rotavirus Wa VP8-mediated infectivity in monkey MA104 cells at 10 mM after 1 hr by immunofluorescence assay; format: cell-based
# MA104 [6] = assay: Inhibition of Rotavirus Wa VP8-mediated binding to monkey MA104 cells at 10 mM after 1 hr by immunofluorescence assay in presence of sialidase; format: cell-based
# MA104 [7] = assay: Inhibition of Rotavirus Wa VP8-mediated binding to monkey MA104 cells at 10 mM after 1 hr by immunofluorescence assay; format: cell-based
# MA104 [8] = assay: Inhibition of Rotavirus Wa VP8-mediated infectivity in monkey MA104 cells at 10 mM after 1 hr by immunofluorescence assay in presence of sialidase; format: cell-based
# MA104 [9] = assay: Inhibition of Rotavirus CRW-8 VP8-mediated binding to monkey MA104 cells at 10 mM after 1 hr by immunofluorescence assay; format: cell-based
# MA104 [10] = assay: Inhibition of Rotavirus CRW-8 VP8-mediated infectivity in monkey MA104 cells at 10 mM after 1 hr by immunofluorescence assay; format: cell-based
# MA104 [11] = assay: Inhibition of Rotavirus CRW-8 VP8-mediated binding to monkey MA104 cells at 10 mM after 1 hr by immunofluorescence assay in presence of sialidase; format: cell-based
# MA104 [12] = assay: Inhibition of Rotavirus CRW-8 VP8-mediated infectivity in monkey MA104 cells at 10 mM after 1 hr by immunofluorescence assay in presence of sialidase; format: cell-based
smiles,measurement,setting,value
CC(=O)N[C@H]1[C@@H](O[C@@H]2[C@H](O[C@]3(C(=O)O)C[C@H](O)[C@@H](NC(C)=O)[C@H]([C@H](O)[C@H](O)CO)O3)[C@@H](O)[C@H](O[C@H]3[C@H](O)[C@@H](O)C(O)O[C@@H]3CO)O[C@@H]2CO)O[C@H](CO)[C@H](O)[C@@H]1O[C@@H]1O[C@H](CO)[C@H](O)[C@H](O[C@]2(C(=O)O)C[C@H](O)[C@@H](NC(C)=O)[C@H]([C@H](O)[C@H](O)CO)O2)[C@H]1O (some centres not stated),Activity,Rotavirus [1],inactive
same,Activity,Rotavirus [2],Active
CC(=O)N[C@H]1[C@@H](O[C@@H]2[C@H](O[C@]3(C(=O)O)C[C@H](O)[C@@H](NC(C)=O)[C@H]([C@H](O)[C@H](O)CO)O3)[C@@H](O)[C@H](O[C@H]3[C@H](O)[C@@H](O)C(O)O[C@@H]3CO)O[C@@H]2CO)O[C@H](CO)[C@H](O)[C@@H]1O[C@@H]1O[C@H](CO)[C@H](O)[C@H](O)[C@H]1O (some centres not stated),Activity,Rotavirus [3],inactive
same,Activity,Rotavirus [4],Active
CO[C@]1(C(=O)O)C[C@H](O)[C@@H](NC(C)=O)[C@H]([C@H](O)[C@H](O)CO)O1,inhibition,MA104 [5],inactive
same,inhibition,MA104 [6],Active
same,inhibition,MA104 [7],45%
same,inhibition,MA104 [8],26%
same,inhibition,MA104 [9],35%
same,inhibition,MA104 [10],52%
same,Activity,MA104 [11],inactive
same,Activity,MA104 [12],inactive
